The record followed here is patent publication US8003083B2, “Benzylidene malonamide and salt thereof, ultraviolet ray absorbent, and agent for external application to the skin” (Shiseido Company, Ltd., priority 2006, dated 2011).

SMILES strings stand for the structures.

Data set [1] in a line: Stability test for use in combination with an inorganic powder ultraviolet shielding agent. It counts as physicochemical. The following applies: sunscreen cream with inorganic powders, ultraviolet absorbent 10.0 wt %, stored at 50° C. for two months, visual.
Procedure: Sunscreen cream was prepared according to the following recipe; it was stored at 50° C. for two months and visually observed for discoloration to investigate the stability when used in combination with an inorganic powder ultraviolet shielding agent.
In data set [2] the test system is degree of sunburn after exposure to direct sunlight. As to the kind of experiment: Ultraviolet prevention effect, actual use test on a beach in summer. It counts as in vivo, human. Here is the method: An actual use test was conducted on a beach in summer. The same amount of sample was applied on the left and right halves of panelists' backs. The degree of sunburn after exposure to direct sunlight was evaluated based on the following criteria. The test was conducted with a group of 10 panelists.
Very effective: No or very little sunburn symptoms were observed.
Effective: A mild degree of sunburn symptoms were observed.
Not effective: A strong degree of sunburn symptoms were observed.
⊚: 80% or more of the subjects report “very effective” or “effective.”
◯: 50% or more and less than 80% of the subjects report “very effective” or “effective.”
∇: 30% or more and less than 50% of the subjects report “very effective” or “effective.”
X: Less than 30% of the subjects report “very effective” or “effective.”
(§1) (a) lotion and (b) cream were prepared according to the following recipes. For the ultraviolet absorbent, benzilidene malonamide (bis-N,N′-[2-(2-hydroxyethoxy)ethyl]-4-methoxybenzilidene malonamide) of the present invention and, as a Comparison example, a water soluble ultraviolet absorbent sodium 2-hydroxy-4-methoxy-5-sulfoquisonium benzophenone were used.
(§2) The water phase and the alcohol phase were separately prepared and then mixed together.
(§3) Propylene glycol and the ultraviolet absorbent were dissolved in ion-exchanged water and the temperature was raised to 70° C. and maintained. The other ingredients were mixed, heated and melted, and the temperature was maintained at 70° C. (oil phase). The oil phase was added to the water phase and pre-emulsification was conducted; after a homomixer was used to emulsify the mixture homogeneously, the temperature was cooled down to 30° C. while thorough stirring was maintained.

Data set [3] relates to flexor forearm skin of healthy male and female volunteers. The data set can be described thus: Skin irritability test, 24-hour closed patch test. Format: in vivo, human. The following applies: ultraviolet absorbent 10 wt %, 20 volunteers. On the procedure: This test was conducted by using the same sample as in Test example 4 (blend ratio of the ultraviolet absorbent was 10 wt %).
A Finn chamber was used to conduct the 24-hour closed patch test on the flexor forearm of healthy male and female volunteers; a group of 20 volunteers were used and the following evaluation criteria were used.
The average score was calculated and the evaluation was done based on the following criteria.
⊚: The average score is 0.
◯: The average score is more than 0 and less than 1.
Δ: The average score is 1 or more and less than 2.
X: The average score is 2 or more.

The nature of data set [4]: Ultraviolet absorption spectrum measurement. Format: physicochemical. The following applies: solvent water, concentration 10 ppm, optical path length 1 cm, FIG. 1. On the procedure:
An ultraviolet absorption spectrum of the benzilidene malonamide obtained in Example 1 was measured (solvent: water, concentration 10 ppm, optical path length 1 cm) by using a spectrophotometer (V-560 from Jasco Co. Ltd.).

The nature of the next data set: Solubility in water. Format: physicochemical. On the procedure:
Solubility in water was measured for the benzilidene malonamide of the present invention. For a Comparative example, sodium 2-hydroxy-4-methoxy-5-sulfoquisonium benzophenone was measured in the same manner.

A short description of data set [5]: Photostability test, sunlight exposure. It counts as physicochemical. The following applies: 80 MJ/m^2. On the procedure: A solution of the ultraviolet absorbent of the present invention was exposed to sunlight for two weeks (sunlight exposure level 80 MJ/m^2) and then the residual ratio and changes in the appearance were investigated and the ultraviolet absorption spectrum was measured (solvent: water, concentration 10 ppm, optical path length 1 cm) by using a spectrophotometer; the ultraviolet absorption spectrum was integrated over a range of 290-400 nm to obtain the area value, which was compared with the value before the sunlight exposure.
Changes in the residual ratio and the area value of the ultraviolet absorption spectrum were evaluated based on the following criteria.
Δ: 70% or more and less than 90% of the value before the sunlight exposure.
X: Less than 70% of the value before the sunlight exposure.

Data set [6] can be described thus: 405 nm visible light absorbance measurement. Format: physicochemical. The following applies: water, optical path length 1 cm. On the procedure:
For a Comparative example, sodium 2-hydroxy-4-methoxy-5-sulfoquisonium benzophenone, a conventional water soluble ultraviolet absorbent, was measured in the same manner.

Data set [7] in a line: External appearance and low temperature storage of lotion and cream samples. It counts as physicochemical. Here is the method: as §1, §2, §3

Consider `COc1ccc(C=C(C(=O)NCCOCCO)C(=O)NCCOCCO)cc1` [Benzilidene malonamide of formula (1), bis-N,N′-[2-(2-hydroxyethoxy)ethyl]-4-methoxybenzilidene malonamide], for which the Discoloration entry in data set [1] is on record as “None”. Besides, the Ultraviolet prevention effect result in data set [2] ((a) Lotion, blend ratio 1, 10 panelists) is “⊚ (80% or more of the subjects report “very effective” or “effective.”)”; in data set [2] ((a) Lotion, blend ratio 5, 10 panelists), “⊚ (80% or more of the subjects report “very effective” or “effective.”)”; in data set [2] ((a) Lotion, blend ratio 10, 10 panelists) it was “⊚ (80% or more of the subjects report “very effective” or “effective.”)”; in data set [2] ((b) Cream, blend ratio 1, 10 panelists), “⊚ (80% or more of the subjects report “very effective” or “effective.”)”; in data set [2] ((b) Cream, blend ratio 5, 10 panelists), “⊚ (80% or more of the subjects report “very effective” or “effective.”)”; in data set [2] ((b) Cream, blend ratio 10, 10 panelists), “⊚ (80% or more of the subjects report “very effective” or “effective.”)”. The “Skin irritability patch test evaluation (average score)” value in data set [3] (Cream) and in data set [3] (Lotion) was “⊚ (The average score is 0.)” throughout. Besides, in data set [4], the “Ultraviolet absorption spectrum (absorption capacity)” value is recorded as “superior absorption capacity over a wide ultraviolet wavelength region”. For the same molecule, the “Solubility (room temperature)” value in “Solubility in water” was 30 or more wt %. The “Changes in the area value of the ultraviolet absorption spectrum” value in data set [5] (290-400 nm integrated, after sunlight for two weeks, water, 10 ppm, 1 cm) was “⊚ (95% or more of the value before the sunlight exposure.)”. The Residual ratio result in data set [5] (solution exposed to sunlight for two weeks) was “⊚ (95% or more of the value before the sunlight exposure.)”. In data set [6] (concentration 10 wt %), this molecule had an Absorbance of 0. For the same molecule, the External appearance entry is “White” in data set [7] ((b) Cream, blend ratio 1); “White” in data set [7] ((b) Cream, blend ratio 5); “White” in data set [7] ((b) Cream, blend ratio 10). Moreover, the “Precipitation during low temperature storage” value in data set [7] (external preparations of Tables 3 and 4 (lotion and cream)) is given as “no precipitation of the ultraviolet absorbent was observed at all”.

For `COc1cc(O)c(C(=O)c2ccccc2)cc1S(=O)(=O)[O-].[Na+]` [sodium 2-hydroxy-4-methoxy-5-sulfoxonium benzophenone, reference compound], the Absorbance in data set [6] (concentration 0.1 wt %) stood at 0.06; in data set [6] (concentration 1 wt %), 0.32; in data set [6] (concentration 6 wt %) it was 1.99. For the same molecule, the “Precipitation during low temperature storage” value in data set [7] ((a) Lotion, blend ratio 5) is on record as “**Crystals precipitated during low temperature storage”; in data set [7] ((b) Cream, blend ratio 5), “**Crystals precipitated during low temperature storage”. The External appearance entry in data set [7] ((b) Cream, blend ratio 1) is reported as “Yellow”; in data set [7] ((b) Cream, blend ratio 5), “Yellow**”.
